One assay deals with human mGlu5 receptor (Homo sapiens (Human), UniProt P41594). Kind of assay: [3H]-M-MPEP radioligand binding assay. The settings on record: competition with [3H]-M-MPEP, membranes of HEK293 cells transfected with human mGlu5. As to the method: Biological Methods Membrane Preparation
human mGlu5 receptor, sequence (P41594 21-1212): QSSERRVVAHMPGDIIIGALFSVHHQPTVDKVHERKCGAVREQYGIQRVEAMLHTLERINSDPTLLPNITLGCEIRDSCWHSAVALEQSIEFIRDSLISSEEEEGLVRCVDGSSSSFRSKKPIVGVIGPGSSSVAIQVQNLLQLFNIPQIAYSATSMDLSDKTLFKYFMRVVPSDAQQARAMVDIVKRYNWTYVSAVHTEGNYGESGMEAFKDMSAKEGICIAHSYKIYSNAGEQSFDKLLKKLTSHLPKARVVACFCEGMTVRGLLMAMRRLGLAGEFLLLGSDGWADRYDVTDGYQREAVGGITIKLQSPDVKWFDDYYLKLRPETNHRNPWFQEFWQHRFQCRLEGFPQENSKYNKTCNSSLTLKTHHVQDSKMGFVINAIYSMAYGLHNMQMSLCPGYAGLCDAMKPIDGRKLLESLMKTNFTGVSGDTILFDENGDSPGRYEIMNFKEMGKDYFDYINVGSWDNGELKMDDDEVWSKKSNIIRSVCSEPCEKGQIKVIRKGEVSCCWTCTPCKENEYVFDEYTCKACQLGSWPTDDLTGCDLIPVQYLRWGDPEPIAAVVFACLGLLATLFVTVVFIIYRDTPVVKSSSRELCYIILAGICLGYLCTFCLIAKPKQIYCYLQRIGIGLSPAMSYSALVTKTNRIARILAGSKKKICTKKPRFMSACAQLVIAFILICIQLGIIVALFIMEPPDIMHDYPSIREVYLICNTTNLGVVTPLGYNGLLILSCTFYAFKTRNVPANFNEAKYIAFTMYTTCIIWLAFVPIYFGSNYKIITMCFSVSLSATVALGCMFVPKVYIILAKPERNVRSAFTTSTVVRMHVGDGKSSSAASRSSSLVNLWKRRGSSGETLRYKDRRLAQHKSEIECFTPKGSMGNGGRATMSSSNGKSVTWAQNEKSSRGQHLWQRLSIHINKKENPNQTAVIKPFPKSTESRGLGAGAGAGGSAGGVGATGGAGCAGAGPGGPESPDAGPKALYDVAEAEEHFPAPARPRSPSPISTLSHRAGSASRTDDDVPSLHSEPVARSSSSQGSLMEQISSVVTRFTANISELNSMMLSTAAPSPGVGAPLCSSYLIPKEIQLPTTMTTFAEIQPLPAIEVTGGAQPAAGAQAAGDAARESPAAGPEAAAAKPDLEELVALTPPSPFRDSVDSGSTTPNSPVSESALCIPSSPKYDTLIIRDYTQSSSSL
cDNA encoding the human mGlu5 receptor was transfected into HEK293 cells using the transfection reagent Genejuice (Novagen). Forty-eight hours after transfection, cells were harvested and washed twice with ice cold phosphate-buffered saline. The pellet was re-suspended in ice-cold buffer containing 20 mM Tris-HCl, pH 7.4, 1 mM EDTA and homogenised with an Ultraturax for 30 s at maximum speed. The suspension was centrifuged (800×g for 5 min at 4° C.) and supernatant collected. Supernatant was centrifuged (40,000×g for 30 min at 4° C.). The resulting pellet was re-suspended and frozen at −80° C. before use. Protein concentration was determined using the BCA protein assay method (Merck Chemicals Ltd).
[^3H]-M-MPEP Radioligand Binding Assay
After thawing, membrane homogenates were re-suspended in the binding buffer (50 mM HEPES pH 7.5, 150 mM NaCl) to a final assay concentration of 2.5 μg protein per well. […] At the end of the incubation, membranes were filtered onto a 96-well GF/B filter pre-incubated with 0.1% polyethylenimine, with a Tomtec cell harvester and washed 5 times with 0.5 mL distilled water. Non-specific binding (NSB) was measured in the presence of 0.1 mM MPEP hydrochloride (Tocris bioscience, catalogue number 1212). Radioactivity on the filter was counted (1 min) on a microbeta counter after addition of 50 μL of scintillation fluid. […] IC50 values were derived from the inhibition curve and the equilibrium dissociation constant (Ki) values were calculated using the Cheng-Prussoff equation.
hippocampal mGlu5 receptors, sequence (P31424 21-1203): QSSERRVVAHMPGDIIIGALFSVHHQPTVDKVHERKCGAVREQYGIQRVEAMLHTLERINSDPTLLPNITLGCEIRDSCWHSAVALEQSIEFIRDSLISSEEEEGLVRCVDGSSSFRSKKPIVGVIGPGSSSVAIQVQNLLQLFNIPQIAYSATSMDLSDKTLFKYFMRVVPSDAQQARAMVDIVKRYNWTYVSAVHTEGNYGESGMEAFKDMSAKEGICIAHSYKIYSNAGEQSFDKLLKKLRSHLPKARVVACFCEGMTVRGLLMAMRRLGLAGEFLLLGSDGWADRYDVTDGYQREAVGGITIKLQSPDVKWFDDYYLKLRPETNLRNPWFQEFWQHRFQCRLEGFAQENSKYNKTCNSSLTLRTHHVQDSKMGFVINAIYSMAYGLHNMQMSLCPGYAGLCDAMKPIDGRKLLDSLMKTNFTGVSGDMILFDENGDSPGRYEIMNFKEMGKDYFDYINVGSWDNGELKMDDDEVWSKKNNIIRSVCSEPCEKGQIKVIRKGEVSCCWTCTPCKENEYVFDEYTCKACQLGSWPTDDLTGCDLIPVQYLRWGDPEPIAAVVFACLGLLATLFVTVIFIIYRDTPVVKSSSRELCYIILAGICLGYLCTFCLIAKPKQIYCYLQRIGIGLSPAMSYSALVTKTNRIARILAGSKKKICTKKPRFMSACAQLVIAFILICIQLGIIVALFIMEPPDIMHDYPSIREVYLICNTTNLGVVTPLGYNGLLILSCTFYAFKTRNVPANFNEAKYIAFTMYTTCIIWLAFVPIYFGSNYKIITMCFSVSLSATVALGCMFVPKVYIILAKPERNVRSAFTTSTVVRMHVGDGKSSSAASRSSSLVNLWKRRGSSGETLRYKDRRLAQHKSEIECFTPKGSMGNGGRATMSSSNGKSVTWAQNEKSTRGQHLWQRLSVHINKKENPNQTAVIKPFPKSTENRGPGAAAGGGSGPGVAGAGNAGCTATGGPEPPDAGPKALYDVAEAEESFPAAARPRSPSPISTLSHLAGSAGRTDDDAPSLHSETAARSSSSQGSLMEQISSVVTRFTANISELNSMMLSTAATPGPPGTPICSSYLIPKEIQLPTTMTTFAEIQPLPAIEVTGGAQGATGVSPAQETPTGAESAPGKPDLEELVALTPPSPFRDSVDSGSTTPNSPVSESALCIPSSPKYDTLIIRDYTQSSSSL
In turn, `Cc1cc(C#N)cc(-c2cc(-c3ccccn3)ncn2)c1` [Example 4, 3-methyl-5-[6-(pyridin-2-yl)pyrimidin-4-yl]benzonitrile] displayed a pKi avg of 8.56.

Molecule `N#Cc1cc(Cl)cc(-c2cc(-c3ccncn3)ncn2)c1` [Example 6, 3-(4,4′-bipyrimidin-6-yl)-5-chlorobenzonitrile] came in with a pKi avg of 8.27.

Consider `N#Cc1cc(Cl)c(F)c(-c2cc(-n3cccn3)ccn2)c1` [Example 10, 3-chloro-4-fluoro-5-[4-(1H-pyrazol-1-yl)pyridin-2-yl]benzonitrile], for which the pKi avg was 8.37.

In turn, `N#Cc1cc(Cl)c(F)c(-c2ccnc(-n3cccn3)c2)c1` [Example 11, 3-chloro-4-fluoro-5-[2-(1H-pyrazol-1-yl)pyridin-4-yl]benzonitrile] returned a pKi avg of 8.16.

`N#Cc1cc(Cl)c(F)c(-c2cc(-n3cc(F)cn3)ncn2)c1` [Example 12, 3-chloro-4-fluoro-5-[6-(4-fluoro-1H-pyrazol-1-yl)pyrimidin-4-yl]benzonitrile] displayed a pKi avg of 8.00.

Molecule `N#Cc1cc(CF)cc(-c2cc(-n3cccn3)ncn2)c1` [Example 16, 3-(fluoromethyl)-5-[6-(1H-pyrazol-1-yl)pyrimidin-4-yl]benzonitrile] displayed a pKi avg of 8.17.

In the case of `N#Cc1cc(C#N)cc(-c2cc(-c3ccccn3)ncn2)c1` [Example 21, 5-[6-(pyridin-2-yl)pyrimidin-4-yl]benzene-1,3-dicarbonitrile], the pKi avg came out at 7.98.

For `Cc1ccc(-c2cc(-c3cc(C)cc(C#N)c3)ncn2)nc1` [Example 23, 3-methyl-5-[6-(5-methylpyridin-2-yl)pyrimidin-4-yl]benzonitrile], the pKi avg is 8.67.

Molecule `COCc1cc(C#N)cc(-c2cc(-c3ccc(F)cn3)ncn2)c1` [Example 24, 3-[6-(5-fluoropyridin-2-yl)pyrimidin-4-yl]-5-(methoxymethyl)benzonitrile] displayed a pKi avg of 8.57.

Take `COc1cc(C#N)cc(-c2cc(-c3ccc(F)cn3)ncn2)c1` [Example 25, 3-[6-(5-fluoropyridin-2-yl)pyrimidin-4-yl]-5-methoxybenzonitrile]: the pKi avg came to 8.37.

A further assay has as its target hippocampal mGlu5 receptors (Rattus norvegicus (Rat), UniProt P31424). Description: Ex vivo mGlu5 receptor occupancy. In kind it is in vivo. The settings on record: Sprague Dawley rats, 1-10 mg/kg po, one hour post-dose, hippocampal CA3 sections, [3H]-M-MPEP autoradiography, read-out: estimated ED50 (receptor occupancy). As to the method:
Ex Vivo mGlu5 Receptor Occupancy
One hour post-dose, animals were sacrificed and whole brains removed, rinsed and blot dried. A coronal block was cut containing the hippocampus and divided along the mid-line and rapidly frozen in isopentane for sectioning and autoradiography. Coronal half-brain sections were cut 20 μm thick, approximately 4 mm posterior to the bregma, to incorporate the hippocampal CA3 region. Three adjacent sections were mounted onto slides and incubated with 2 nM [^3H]-M-MPEP (total binding) or 2 nM [^3H]-M-MPEP and 10 μM fenobam (non-specific binding, Tocris bioscience, catalogue number 2386) for 10 min at room temperature. Binding was terminated by aspiration and washing with ice-cold assay buffer (4×5 min) and sections allowed to air dry. Levels of bound radioactivity in the sections were determined using a beta imager over a 16 h period. Occupancy was determined as mean specific binding with the vehicle treated control taken as 100%.
The ED50 is the dose that gives a 50% effect, or the effect in half of the subjects. As to `N#Cc1cc(Cl)cc(-c2cc(-c3ccccn3)ncn2)c1` [Example 2, 3-chloro-5-[6-(pyridin-2-yl)pyrimidin-4-yl]benzonitrile], the ED50 was 2.8 mg/kg.

Turning to `N#Cc1cc(Cl)cc(-c2cc(-c3ccc(F)cn3)ncn2)c1` [Example 17, 3-chloro-5-[6-(5-fluoropyridin-2-yl)pyrimidin-4-yl]benzonitrile], the ED50 was 0.3 mg/kg.

Regarding `N#Cc1cc(C#N)cc(-c2cc(-c3ccc(F)cn3)ncn2)c1` [Example 18, 5-[6-(5-fluoropyridin-2-yl)pyrimidin-4-yl]benzene-1,3-dicarbonitrile], the ED50 is 2.9 mg/kg.

The test system of another assay is Male CD-1 mice. Kind of assay: In vivo efficacy test - mouse marble burying. The settings on record: 10 and 30 mg/kg po versus vehicle group, dosed 30 min prior to test, one-way ANOVA with Dunnett's post-hoc test. The text has this: In Vivo Efficacy Test—Marble Burying
`N#Cc1cc(Cl)cc(-c2cc(-c3ccc(F)cn3)ncn2)c1` [Example 17, 3-chloro-5-[6-(5-fluoropyridin-2-yl)pyrimidin-4-yl]benzonitrile]: the “number of marbles buried” value is reported as “statistically significant decrease”.

These data come from patent US10246432B2, “4-(3-cyanophenyl)-6-pyridinylpyrimidine mGlu5 modulators” (Heptares Therapeutics Limited, priority 2013, dated 2019).
